Key:
Format in all cases: binding, Helicobacter pylori
[1] = test system: H. pylori strains; assay: radio immuno analysis (RIA) with 125I-labelled neoglycoconjugates; settings: strains of Fig. 4 (BabA2 mutant, babA1A2 mutant, CCUG 17875, CCUG 17874), 400 ng conjugate, 30 min
Protocol: Bars, from the left to the right; The sialyl-alfa2.61actose-, sialyl-alfa2.31actose-, sialyl-Lewis a-, sialyl-Lewis x-, and Lewis b-, synthesised sialyl-Lewis x- sialyl-acetyllactosaminee, both with a either a 3 carbon or 14 carbon (extended/hydrophilic) spacer, conjugated to albumin, Finally, the histo-blood group antigen Lewis y (synthesised penta-saccharide) (V. Behar and S.J. Danishefsky, Angew. Chem. Int. Ed. Engi, 1994, 33, no. 14, 1468.), was analysed as a neo-glycoconjugate.
The sialyl-alfa2.3lactose-, sialyl-alfa2.61actose-, sialyl-Lewis a-, and Lewis b-oligosaccharide antigens used for neoglycoconjugate preparations were purified by HPLC, structurally identified and characterized with NMR-spectroscopy, and more than 95% pure. These conjugates were attached to albumin with an APD (acetylphenylenediamine) spacer attached to the carbohydrate by reductive animation and thus the terminal reducing monosaccharide unit of the oligosaccharide is reduced and is present as an aminoalditol, IsoSep AB, Tullinge, Sweden (T. Borén, P. Falk, K. A. Roth, G. Larson, and S. Normark, Science. 262, 1892 (1993), P. D. Rye, Nature Biotechnology 2, 155 (1996)). The synthesised sialyl-Lewis x- tetrasaccharide antigen was conjugated to albumin with the MPE (mercaptopropionyl-amidoethyl) -spacer, IsoSep AB. Synthesised sialyl-Lewis x-tetrasaccharide and sialyl-acetyllactosaminee, both with a either a 3 carbon or 14 carbon (extended/hydrophilic) spacer, conjugated to albumin, were obtained from Dextra Laboratories, Reading, UK. The RIA (Fig. 4) was performed according to (P. Falk, T. Borén, D. Haslam, M. G. Caparon, Meth. Cell Biol. 45, 161 (1994)) with minor modifications; the glycoconjugates were ^125I-labelled by the Chloramine T method. 1 ml of bacteria (A600= OD 0.10) was incubated with 400 ng of ^125I-labelled conjugate (that is an excess of receptor substrate) for 30 min. in phosphate buffered saline (PBS), 0.5 % albumin, 0.05 % Tween-20 (BB-buffer). After centrifugation, the ^125I-activity bound to the bacterial pellet was measured by gamma scintillation counting. Binding experiments were reproducible and performed in triplets. In addition, the level of binding-activity within the strain was stabile.

[2] = test system: 91 Swedish clinical H. pylori isolates; settings: out of 91 clinical isolates
Protocol: Bacteria were grown at 37°C in 10 % CO2 and 5% O2 (T. Borén, P. Falk, K. A. Roth, G. Larson, and S. Normark, Science.. 262, 1892(1993), for 2 days for optimal Le b antigen binding activity.

[3] = test system: CCUG 17875 and the babA1A2 double mutant; assay: H. pylori adherence to immobilized neoglycoconjugates in ELISA; settings: strain not specified (CCUG 17875 and babA1A2 double mutant tested)
Protocol: CCUG 17875 (75) and the babA1A2 double mutant (DM) were added to the ELISA in a series labelled A-F. Adherent bacteria were detected by polyclonal rabbit antisera against H. pylori CCUG 17875. The products of the horseradish peroxidase reaction were quantified in a microtiter plate reader.
Sialyl-Lewis a-PAA, sialyl-Lewis x-PAA, 3'-HSO3-Lewis a-PAA, and 3'-HSO3-Lewis x-PAA, i.e. synthesised sialylated or sulphated Lewis antigens conjugated to polyacrylamide backbone were obtained from Syntesome GmbH, Munchen, Germany. The conjugates were added in dilution series of 1µg, 100ng, and 10 ng, in 90µl 1% BSA PBS 0.05% Tween, to streptavidin coated microtiter (ELISA) plates (Roche Diagnostics Scandinavia AB, Bromma, Sweden). After one hour of incubation in room temperature, the plate was blocked over night at 4°C, with 500ng biotinylated albumin in 300µl 1% BSA PBS 0.005% Tween. […] Adherent bacteria were detected by polyclonal rabbit antisera at a dilution of 1:3000, raised against formalin fixed bacteria of strain CCUG 17875 in New Zealand rabbits (Agrisera AB, Vännäsby, Sweden) The antibodies were allowed to incubate in 1% BSA in PBS 0.05% Tween for 30 minutes at room temperature. […] The products of the horseradish peroxidase reaction were quantified in a microtiter plate reader at 490 nm.

Q: What does the source list for `CC(=O)NC1C(OC2C(O)C(O)OC(CO)C2O)OC(CO)C(OC2OC(CO)C(O)C(O)C2OC2OC(C)C(O)C(O)C2O)C1OC1OC(C)C(O)C(O)C1O` (centres unmarked) [Lewis y penta-saccharide antigen, Fucα2Galβ4GlcNAcβ3Gal 3 Fucα1]?
A: binding of 125I-labelled neoglycoconjugate (in words) [1]: did not demonstrate any binding activity; binding of 125I-labelled neoglycoconjugate (in words) ([1]; listed as Lewis y pentasacharide antigen): did not detect any binding activity; number of isolates that bound the neoglycoconjugate antigen [2]: None

Q: Which “binding to immobilised antigen in ELISA (in words)” value [3] does the source give for “HSO3-3Galβ4GlcNAcβ3Galβ4Glc 3 Fucα1 [3'HSO3Lewis x]” here?
A: no binding above background

Q: Which “binding to immobilised antigen in ELISA (in words)” value [3] does the source give for “HSO3-3Galβ3GlcNAcβ3Galβ4Glc 4 Fucα1 [3'HSO3Lewis a]” here?
A: no binding above background

— patent EP1169044B1, “USE OF FUCOSYLATED SIALYLATED N-ACETYL LACTOSAMINE CARBOHYDRATE STRUCTURES FOR INHIBITION OF BACTERIAL ADHERENCE” (Borén, Thomas, priority 1999, dated 2000)
